This note sets out measurements from ChEMBL document CHEMBL1201862, “PubChem BioAssay data set” (2004).

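Cells were grown in 96-well plates and exposed to each compound for 48 hours at five concentrations; endpoints were interpolated linearly between bracketing concentrations, or set to the highest concentration if not reached. Abbreviation: GI50, concentration required for 50% inhibition of growth.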 The source made the active and inactive calls. No stated cut-off is given here; in the data, active = GI50 up to about 1.1 µM and inactive = higher. Bounds are passed on as bounds.

Among the test systems are HOP-92; MDA-MB-231; MDA-MB-435; SF-295; PC-3; T47D; A498; MOLT-4; SF-268; MCF7; SN12C; DU-145; BT-549; NCI/ADR-RES; IGROV-1; MDA-N; Malme-3M; DMS-273; M19-MEL; HOP-18.
Holding throughout (assay): NCI anticancer screen, dose series, 48 h

Turning to `COc1ccc2[nH]c(C(=O)N3CC(CCl)c4c3cc(N)c3ccccc43)cc2c1` (centres undefined), the GI50 in the assay with HOP-92 was < 0.018 µM (active); with MDA-MB-231, < 0.0204 µM (active); in the assay on MDA-MB-435, 0.0118 µM (active); in the assay on SF-295 it was < 0.01 µM (active); in the assay on PC-3, < 0.01 µM (active); in the assay with T47D, 0.0101 µM (active). Moreover, the GI50 in the assay with A498 was 0.0116 µM (active); in the assay on MOLT-4 it was < 0.01 µM (active); with SF-268 it was < 0.01 µM (active); in the assay on MCF7, < 0.01 µM (active); with SN12C it was < 0.01 µM (active); in the assay with DU-145, < 0.01 µM (active). For the same compound, the GI50 is < 0.0153 µM (active) in the assay on BT-549, < 0.01 µM (active) with NCI/ADR-RES, < 0.01 µM (active) in the assay with IGROV-1 and 0.0112 µM (active) in the assay on MDA-N.

On to `COC1=CC(=O)c2c(c(COC(C)=O)cn2C)C1=O`, for which the GI50 in the assay with HOP-92 was 0.291 µM (active); with MDA-MB-231, 0.389 µM (active); in the assay on MDA-MB-435, 0.13 µM (active); in the assay on SF-295 it was 0.0286 µM (active); in the assay with PC-3, 0.309 µM (active); in the assay with T47D it was 0.736 µM (active). In addition, the GI50 in the assay with Malme-3M is 0.0343 µM (active); with A498, 0.244 µM (active); in the assay with MOLT-4 it was 0.305 µM (active); in the assay on SF-268, 0.173 µM (active); in the assay on MCF7, 0.184 µM (active); in the assay with SN12C, 0.0622 µM (active). The GI50 with DU-145 is 0.0457 µM (active); in the assay on BT-549, 0.0208 µM (active); in the assay on NCI/ADR-RES, 0.061 µM (active); in the assay on IGROV-1 it was 0.184 µM (active); with MDA-N, 0.0942 µM (active).

Turning to `CC(=O)Oc1c(OC(C)=O)c(-c2ccc(O)c(O)c2)c(O)c(O)c1-c1ccc(O)cc1`, the GI50 with HOP-92 is 30.2 µM (inactive); in the assay with SF-295, > 100 µM (inactive); in the assay with DMS-273, > 100 µM (inactive); in the assay with M19-MEL, 24.4 µM (inactive); in the assay on A498, > 100 µM (inactive); in the assay on HOP-18 it was > 100 µM (inactive). Moreover, the GI50 with MOLT-4 was > 100 µM (inactive); in the assay on SF-268, > 100 µM (inactive); with MCF7, > 100 µM (inactive); in the assay with SN12C, > 100 µM (inactive); with NCI/ADR-RES, > 100 µM (inactive); in the assay with IGROV-1 it was 93.1 µM (inactive).

Turning to `COc1ccc(CC(CO)NC(=O)OCc2ccccc2)cc1Oc1ccc(CC(CO)NC(=O)OCc2ccccc2)cc1` (centres undefined), the GI50 in the assay with HOP-92 was 18.3 µM (inactive); in the assay with MDA-MB-231, 13.1 µM (inactive); with MDA-MB-435 it was 15.3 µM (inactive); with SF-295, 11.6 µM (inactive); in the assay with PC-3, 11.2 µM (inactive); in the assay on Malme-3M it was 7.91 µM (inactive). Also, the GI50 was 15.5 µM (inactive) in the assay on A498; 3.43 µM (inactive) with MOLT-4; 7.82 µM (inactive) with SF-268; 16.7 µM (inactive) with SN12C; 15.4 µM (inactive) with DU-145; 12.4 µM (inactive) in the assay with BT-549. Moreover, the results for the GI50 in the assay on IGROV-1 and in the assay on MDA-N were 11 µM (inactive) and 15.6 µM (inactive), respectively.

For the compound `COc1nc(Cl)nc(N[C@H](C)c2c3ccccc3cc3ccccc23)n1`, the GI50 in the assay on HOP-92 was 18.6 µM (inactive); with MDA-MB-231, 13.9 µM (inactive); with MDA-MB-435, 4.31 µM (inactive); in the assay on SF-295 it was 15.6 µM (inactive); in the assay on PC-3, 14.9 µM (inactive); in the assay on T47D, 1.99 µM (inactive). Besides, the GI50 with A498 is < 0.01 µM (active); in the assay on MOLT-4 it was 14.1 µM (inactive); with SF-268, 18 µM (inactive); in the assay with MCF7, 14.2 µM (inactive); in the assay with SN12C it was 0.879 µM (active); in the assay on DU-145, 12.4 µM (inactive). For the same compound, the GI50 is 18 µM (inactive) in the assay with BT-549, 14.2 µM (inactive) in the assay with NCI/ADR-RES, 6.75 µM (inactive) in the assay on IGROV-1 and 2.71 µM (inactive) with MDA-N.

Consider `Cc1ccc(NC(=O)CC(=O)n2nc(-c3ccccc3)c(/N=N/c3ccccc3C(=O)O)c2-c2ccccc2)cc1`, for which the GI50 in the assay with HOP-92 is > 100 µM (inactive); in the assay on SF-295, > 100 µM (inactive); in the assay on DMS-273 it was > 100 µM (inactive); in the assay with M19-MEL, > 100 µM (inactive); with Malme-3M, > 100 µM (inactive); in the assay with MOLT-4 it was 4.4 µM (inactive). Besides, the GI50 in the assay on SF-268, in the assay with SN12C and in the assay with IGROV-1 was > 100 µM (inactive) throughout.

In the case of `COc1ccc2oc3c(ccc[n+]3C)c(=O)c2c1`, the GI50 in the assay with HOP-92, with MDA-MB-231, in the assay on MDA-MB-435, in the assay on SF-295, in the assay on PC-3 and with T47D was > 100 µM (inactive) in each case. Moreover, the GI50 in the assay on Malme-3M, in the assay on A498, with SF-268, with MCF7, in the assay on SN12C and in the assay on DU-145 was > 100 µM (inactive) in each case. For the same compound, the GI50 in the assay with NCI/ADR-RES, with IGROV-1 and in the assay with MDA-N was > 100 µM (inactive) each time.

With `CCN(CC)CCCNC(=O)c1ccccc1Nc1c(Cl)cccc1Cl`, the GI50 is 17.3 µM (inactive) with DMS-273; 3.28 µM (inactive) in the assay on M19-MEL; 11.8 µM (inactive) in the assay with MOLT-4; 15.5 µM (inactive) in the assay with SF-268; 14.2 µM (inactive) in the assay with SN12C; 17.6 µM (inactive) in the assay on IGROV-1.

As to `O=C(O)CC/C(=N\Nc1nsc2ccccc12)c1ccccc1`, the GI50 with HOP-92 was 51.3 µM (inactive); with DMS-273, 24.7 µM (inactive); with M19-MEL it was 72.3 µM (inactive); with HOP-18, > 100 µM (inactive); with MOLT-4, 23.4 µM (inactive); in the assay with SF-268, 39.4 µM (inactive). The GI50 was 38.1 µM (inactive) with SN12C and > 100 µM (inactive) with IGROV-1.

Turning to `Cc1cccc2sc(-c3ccc(O)cc3)nc12`, the GI50 is 19.8 µM (inactive) in the assay with MDA-MB-231; 11 µM (inactive) in the assay on MDA-MB-435; 14.6 µM (inactive) with SF-295; 17.5 µM (inactive) in the assay with PC-3; 16.9 µM (inactive) in the assay with Malme-3M; 3.15 µM (inactive) in the assay on A498. Further, the GI50 with MOLT-4 was 43.7 µM (inactive); with SF-268 it was 16.6 µM (inactive); in the assay on MCF7 it was 12.2 µM (inactive); with SN12C it was 18.2 µM (inactive); in the assay with DU-145, 17.8 µM (inactive); with BT-549 it was 11.8 µM (inactive). Besides, the GI50 in the assay on NCI/ADR-RES is 19.3 µM (inactive); in the assay on IGROV-1, 13.7 µM (inactive); in the assay with MDA-N, 3.97 µM (inactive).

As to `O=C1CN2Cc3cc(N4CCOCC4)ccc3N=C2N1`, the GI50 with HOP-92 is > 100 µM (inactive); in the assay on MDA-MB-231 it was 88.1 µM (inactive); with MDA-MB-435 it was 22.9 µM (inactive); in the assay with SF-295 it was 38.6 µM (inactive); in the assay with PC-3, 31.4 µM (inactive); in the assay on T47D, > 100 µM (inactive). The GI50 with Malme-3M is 89.1 µM (inactive); with A498 it was 91 µM (inactive); in the assay with MOLT-4, 25 µM (inactive); in the assay on MCF7, 60.8 µM (inactive); in the assay with SN12C, 63.5 µM (inactive); with DU-145, 49.5 µM (inactive). The GI50 in the assay on BT-549 was > 100 µM (inactive); in the assay with NCI/ADR-RES, 31.3 µM (inactive); in the assay with IGROV-1 it was 27.5 µM (inactive).

As to `O=c1cnn(C/C=C/CP(=O)(O)O)c(=O)[nH]1`, the GI50 in the assay with HOP-92, in the assay with MDA-MB-231, in the assay on MDA-MB-435, in the assay on PC-3, in the assay on T47D and with Malme-3M was > 100 µM (inactive) in each case. Moreover, the GI50 in the assay on A498, with SF-268, with MCF7, with SN12C, in the assay on DU-145 and in the assay on BT-549 was > 100 µM (inactive) in each case. In addition, the GI50 in the assay with NCI/ADR-RES, in the assay on IGROV-1 and in the assay with MDA-N was > 100 µM (inactive) in each case.

On to `O=C(Nc1ccc(I)cc1C(=O)NCCO)c1cccs1`, for which the GI50 with MDA-MB-435, with SF-295, in the assay on PC-3, in the assay on MOLT-4, with SF-268 and with MCF7 was > 100 µM (inactive) each time. For the same compound, the GI50 in the assay with SN12C, in the assay on BT-549, with NCI/ADR-RES and in the assay with IGROV-1 was > 100 µM (inactive) each time.

On to `CCOC(=O)C(C)OC(=O)c1ccc(C)cc1` (centres undefined), for which the GI50 in the assay with HOP-92 was > 100 µM (inactive); in the assay on SF-295, > 10 µM (inactive); with DMS-273, > 100 µM (inactive); in the assay on M19-MEL, > 100 µM (inactive); with Malme-3M, > 100 µM (inactive); in the assay with A498 it was > 100 µM (inactive). For the same compound, the GI50 in the assay on HOP-18, with MOLT-4, with SF-268, in the assay on SN12C and in the assay with IGROV-1 was > 100 µM (inactive) throughout.

Take `COc1ccc2c(=O)c(O)c(-c3ccc(OC)c(OC)c3)oc2c1`: the GI50 was 4.18 µM (inactive) in the assay with HOP-92; 4.8 µM (inactive) in the assay with MDA-MB-231; 4.51 µM (inactive) with MDA-MB-435; 10.1 µM (inactive) in the assay on SF-295; 9.38 µM (inactive) in the assay on PC-3; > 100 µM (inactive) with T47D. The GI50 in the assay with Malme-3M is 15.1 µM (inactive); in the assay on A498, 4.97 µM (inactive); in the assay on MOLT-4 it was 3.22 µM (inactive); in the assay on SF-268, 4.84 µM (inactive); in the assay with MCF7, 3.74 µM (inactive); with DU-145, 4.04 µM (inactive). For the same compound, the GI50 in the assay with NCI/ADR-RES is 2.23 µM (inactive); with IGROV-1, 7.45 µM (inactive); with MDA-N, > 100 µM (inactive).
